The source of these data is US11007385B2, “Use of cellular extracts for skin rejuvenation” (Regenics AS, priority 2012, dated 2021).

The subject of assay [1] is human skin fibroblasts (hSF). Briefly: Proliferation / cell number of human skin fibroblasts. Type of assay: cell-based. Also on record: increase in cell number: unit not given here. The following applies: 8 days; for Cell % change: vs control.
Assay [2] has as its system human skin fibroblasts (hSF). Nature of the assay: Collagen secretion from human skin fibroblasts (Biocolor Sircol collagen assay). Type of assay: cell-based. Particulars: for Collagen Abs / Collagen/cell / Coll/cell % change: 8 days.
Procedure: LEX 42 and different concentrations of retinoic acid (0.01M and 0.1M) are applied to fibroblasts (HsF cells) in vitro and collagen production and secretion is measured. Briefly, on day 0, fibroblasts are seeded in 25 cm^2 cell culture flasks at a density of 2.8×10^5 cells per flask. On day 1, the culture media is replaced with fresh culture media supplemented with 0.5% LEX, 0.01M RA, or 0.1M RA. Control cells are grown with cell culture medium without LEX or RA. The cultures are continued for seven days, with a media (LEX/RA/control) change at day 4. On day 8, the cells are washed 3× with PBS before adding cell culture medium with low serum (1% FBS). On day 9, the culture medium (1.4 ml) is harvested and collagen content assessed using a collagen kit (Biocolor, on eht world wide web at biocolor.co.uk/index.php/assay-kits/sircol-1/). The absorbance is measured with Nanodrop 2000c (Thermo).
LEX 51 was applied to fibroblasts (HsF cells) in vitro, and collagen production and secretion was assayed. The procedure was as described above, except with the modification of the assay on day 10, were 2 ml of the culture medium is harvested and collagen content assessed using a collagen kit (Biocolor, biocolor.co.uk/index.php/assay-kits/sircol-1/), with the adaptation of isolating collagen from 2 ml of culture medium compared to 1 ml as described in the kit manual. The absorbance is measured at 550 nm (the base line was set to 750 nm) with the Nanodrop 2000 (Thermo)
Collagen assay from Biocolor was used to analyze the effect of LEX on hSF (fibroblast). This assay measures the produced and secreted collagen from hSF (fibroblasts). The measurements from un-stimulated control was compared to LEX stimulated hSF (fibroblasts) and noted as fold induction.
The level of collagen was measured after 8 days of treatment with 0% or 0.5% reconstituted freeze dried salmon egg extract I in complete growth medium supplemented with 10% FBS. Ascorbic acid (1 μg/ml) and 0.5% salmon egg extract I was used as positive controls.

Where “and” joins values, the source holds several entries; their conditions need not be identical. Identical values can stand only once.

With `CC1=C(/C=C/C(C)=C/C=C/C(C)=C/C(=O)O)C(C)(C)CCC1` [RA, retinoic acid], in assay [1] (0.01 μM RA), the “final # of cells” value is 959833 and the Cell % change came out at 10.1%. In addition, in assay [1] (0.1 μM RA), the “final # of cells” value was determined as 906000 and the Cell % change amounted to 3.9%. The “increase in cell number” value in assay [1] (0.01M RA) stood at 3.99. In addition, the “increase in cell number compared to control” value in assay [1] (0.1M RA) is reported as 10%. Moreover, in assay [2] (0.01 μM RA), the “Collagen Abs” value is reported as 0.046 and the Collagen/cell is listed as 4.7925E−08. The Coll/cell % change in assay [2] (0.01 μM RA, vs control) is listed as −16.5%. Also, in assay [2] (0.1 μM RA), the “Collagen Abs” value is 0.046 and the Collagen/cell is 5.077E−08. In assay [2] (0.1 μM RA, vs control), the Coll/cell % change is −11.5% and the “decrease of collagen per cell” value is recorded as 11.5%. Besides, the “decrease of collagen produced per cell” value in assay [2] (0.01M RA, vs control) was 16.5%. Also, the “fold change of collagen produced per cell compared to control cultures” value in assay [2] (RA cultures (0.01M and 0.1M), eight days) is 0.84 and 0.89.
